Tests used:
Format in all cases: biochemical
[1] = target: T1, full length recombinant Pim-1 protein (Homo sapiens, UniProt P11309); assay: Pim-1 enzyme assay (HTRF, phosphorylation of biotinylated-BAD (S112) peptide); details: enzyme assay, Pim-1; read-out: Pim_1_IC50
T1 construct: by full length recombinant Pim-1, Pim-2, or Pim-3 protein; hexahistidine tag followed by a thrombin cleavage site (N); made in house; host or cells: Sf9 (baculovirus) or E. coli (pET28)
In short: (§1)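 Full-length human Pim-1 or Pim-2 (His6-tagged, Sf9 or E. coli expressed, Ni and Superdex 75 purified) phosphorylates biotinylated BAD (S112) peptide in 60 mM Hepes pH 7.0, 0.05% BSA, 2 mM DTT. Stopped with 3 mM EDTA; HTRF read with Eu anti-phospho-BAD and streptavidin-APC. IC50 from 4-parameter logistic fit of percent of control.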

[2] = target: T2, full length recombinant Pim-3 protein (Homo sapiens, UniProt Q86V86); assay: Pim-3 enzyme assay (HTRF, phosphorylation of biotinylated-BAD (S112) peptide); details: read-out: Pim3 IC50
T2 construct: by full length recombinant Pim-1, Pim-2, or Pim-3 protein; purchased Millipore (UK)
From the text: Pim-3 was purchased from Millipore (UK).
The phosphorylation of biotinylated-BAD (S112) peptide by full length recombinant Pim-1, Pim-2, or Pim-3 protein was detected with streptavidin:Allophycocyanin (APC) conjugate and a europium (Eu) labeled antibody directed against phosphorylated-BAD (S112). […] The fluorescence is directly proportional to the amount of phosphorylated BAD peptide present in the reaction.
A reference compound was included on each assay plate in order to validate that plate; on one plate of every assay run, two additional reference compounds were included.
The final buffer conditions were as follows: 60 mM Hepes, pH 7.0, 0.05% BSA, 2 mM DTT. […] The reaction was stopped by the addition of 3 mM EDTA, and fluorescence was measured by an HTRF® Rubystar microplate reader. For each plate, percent of control (POC) values were calculated for each well. Values for the IC50 IP were estimated using a standard 4-parameter logistic model.

[3] = target: T3, full length recombinant Pim-2 protein (Homo sapiens, UniProt Q9P1W9); assay: Pim-2 enzyme assay (HTRF, phosphorylation of biotinylated-BAD (S112) peptide); details: enzyme assay, Pim-2; read-out: Pim2_IC50
T3 construct: by full length recombinant Pim-1, Pim-2, or Pim-3 protein; hexahistidine tag followed by a thrombin cleavage site (N); made in house; host or cells: Sf9 (baculovirus) or E. coli (pET28)
In short: as §1

T3 sequence (Q9P1W9 whole entry): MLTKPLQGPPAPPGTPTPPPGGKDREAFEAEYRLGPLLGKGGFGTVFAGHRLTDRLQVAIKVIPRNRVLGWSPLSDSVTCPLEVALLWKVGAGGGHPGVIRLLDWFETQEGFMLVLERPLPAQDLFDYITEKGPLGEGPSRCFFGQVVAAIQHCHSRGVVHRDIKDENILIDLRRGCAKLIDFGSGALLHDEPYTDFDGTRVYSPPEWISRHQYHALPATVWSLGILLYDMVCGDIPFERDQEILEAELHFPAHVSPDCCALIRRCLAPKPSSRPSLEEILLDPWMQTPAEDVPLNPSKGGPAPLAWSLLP
T1 sequence (P11309 whole entry): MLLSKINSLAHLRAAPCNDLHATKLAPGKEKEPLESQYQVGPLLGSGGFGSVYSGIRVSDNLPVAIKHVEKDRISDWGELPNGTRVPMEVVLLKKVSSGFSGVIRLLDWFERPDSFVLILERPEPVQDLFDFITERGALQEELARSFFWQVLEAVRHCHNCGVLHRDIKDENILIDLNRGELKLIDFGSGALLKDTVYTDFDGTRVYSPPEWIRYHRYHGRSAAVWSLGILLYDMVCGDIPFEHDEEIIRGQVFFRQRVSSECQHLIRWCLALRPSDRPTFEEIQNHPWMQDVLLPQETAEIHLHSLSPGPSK

Compound	IC50 [1] [nM]	IC50 [2] [nM]	IC50 [3] [nM]
FC(F)(F)Oc1cccc(-c2ccc3[nH]nc(-c4cncc(O[C@@H]5CCCNC5)n4)c3c2)c1 [Example 150, 3-(6-((3R)-3-piperidinyloxy)-2-pyrazinyl)-5-(3-(trifluoromethoxy)phenyl)-1H-indazole]	35	29	214
c1cc2[nH]nc(-c3cncc(O[C@@H]4CCCNC4)n3)c2cc1C1CCOCC1 [Example 151, 3-(6-((3R)-3-piperidinyloxy)-2-pyrazinyl)-5-(tetrahydro-2H-pyran-4-yl)-1H-indazole]	27	129	118
Oc1nccc(-c2ccc3[nH]nc(-c4cncc(O[C@@H]5CCCNC5)n4)c3c2)n1 [Example 155, 4-(3-(6-((3R)-3-piperidinyloxy)-2-pyrazinyl)-1H-indazol-5-yl)-2-pyrimidinol]	36	27	108
c1cc2[nH]nc(-c3cncc(O[C@@H]4CCCNC4)n3)c2cc1C1CCCOC1 (stereo partly drawn) [Example 156, 3-(6-((3R)-3-piperidinyloxy)-2-pyrazinyl)-5-(tetrahydro-2H-pyran-3-yl)-1H-indazole]	49	66	144
Fc1cccc(F)c1-c1ccc2[nH]nc(-c3cncc(N4CCCC4)n3)c2c1 [Example 170, 5-(2,6-difluorophenyl)-3-(6-(1-pyrrolidinyl)-2-pyrazinyl)-1H-indazole]	153	187	> 3000
O[C@H]1CCN(c2cncc(-c3n[nH]c4ccc(-c5c(F)cccc5F)cc34)n2)C1 [Example 175, (3S)-1-(6-(5-(2,6-difluorophenyl)-1H-indazol-3-yl)-2-pyrazinyl)-3-pyrrolidinol]	168	153	1180
CNc1cncc(-c2n[nH]c3ccc(-c4c(F)cccc4F)cc23)n1 [Example 179, 6-(5-(2,6-difluorophenyl)-1H-indazol-3-yl)-N-methyl-2-pyrazinamine]	168	122	858
CN(C)c1cncc(-c2n[nH]c3ccc(-c4c(F)cccc4F)cc23)n1 [Example 181, 6-(5-(2,6-difluorophenyl)-1H-indazol-3-yl)-N,N-dimethyl-2-pyrazinamine]	206	146	2080
CNc1nccc(-c2n[nH]c3ccc(-c4c(F)cccc4F)cc23)n1 [Example 192, 4-(5-(2,6-difluorophenyl)-1H-indazol-3-yl)-N-methyl-2-pyrimidinamine]	147	175	1250
CC(C)Nc1nccc(-c2n[nH]c3ccc(-c4c(F)cccc4F)cc23)n1 [Example 193, 4-(5-(2,6-difluorophenyl)-1H-indazol-3-yl)-N-(1-methylethyl)-2-pyrimidinamine]	161	143	1340
C[C@@H]1CCNC[C@H]1Oc1cncc(-c2n[nH]c3ccc(-c4c(F)cccc4F)cc23)n1 [Example 197, 5-(2,6-difluorophenyl)-3-(6-(((3S,4R)-4-methyl-3-piperidinyl)oxy)-2-pyrazinyl)-1H-indazole]	37	18	187
Fc1cccc(F)c1-c1ccc2[nH]cc(-c3nccc(NC4CCNCC4)n3)c2c1 [Example 210, 2-(5-(2,6-difluorophenyl)-1H-indol-3-yl)-N-4-piperidinyl-4-pyrimidinamine]	120	91	424
Fc1cccc(F)c1-c1ccc2[nH]cc(-c3cncc(O[C@H]4CCCNC4)n3)c2c1 [Example 214, 5-(2,6-difluorophenyl)-3-(6-((3S)-3-piperidinyloxy)-2-pyrazinyl)-1H-indole]	45	83	515
CC(C)Oc1cncc(-c2ccc3[nH]cc(-c4ccc(F)cn4)c3c2)n1 [Example 215, 3-(5-fluoro-2-pyridinyl)-5-(6-(1-methylethoxy)-2-pyrazinyl)-1H-indole]	1640	538	> 3000
Cc1ccnc(-c2c[nH]c3ccc(-c4cncc(OC(C)C)n4)cc23)c1 [Example 216, 5-(6-(1-methylethoxy)-2-pyrazinyl)-3-(4-methyl-2-pyridinyl)-1H-indole]	601	245	2150
CC(C)Oc1cncc(-c2ccc3[nH]cc(-c4cccc(N)n4)c3c2)n1 [Example 217, 6-(5-(6-(1-methylethoxy)-2-pyrazinyl)-1H-indol-3-yl)-2-pyridinamine]	765	156	2350
CC(C)Oc1cncc(-c2ccc3[nH]cc(-c4cc(N)ccn4)c3c2)n1 [Example 218, 2-(5-(6-(1-methylethoxy)-2-pyrazinyl)-1H-indol-3-yl)-4-pyridinamine]	805	317	> 3000
Cc1ccc(-c2c[nH]c3ccc(-c4cncc(OC(C)C)n4)cc23)nc1 [Example 219, 5-(6-(1-methylethoxy)-2-pyrazinyl)-3-(5-methyl-2-pyridinyl)-1H-indole]	1130	692	> 3000
CC(C)Oc1cncc(-c2ccc3[nH]cc(-c4cccc(N5CCOCC5)n4)c3c2)n1 [Example 220, 5-(6-(1-methylethoxy)-2-pyrazinyl)-3-(6-(4-morpholinyl)-2-pyridinyl)-1H-indole]	494	329	> 3000
COc1cnc(-c2c[nH]c3ccc(-c4cncc(OC(C)C)n4)cc23)cn1 [Example 222, 3-(5-methoxy-2-pyrazinyl)-5-(6-(1-methylethoxy)-2-pyrazinyl)-1H-indole]	732	445	> 3000
CC(C)Oc1cncc(-c2ccc3[nH]cc(-c4cccc(-n5cccn5)n4)c3c2)n1 [Example 223, 5-(6-(1-methylethoxy)-2-pyrazinyl)-3-(6-(1H-pyrazol-1-yl)-2-pyridinyl)-1H-indole]	142	150	> 3000
COc1cncc(-c2c[nH]c3ccc(-c4cncc(OC(C)C)n4)cc23)n1 [Example 224, 3-(6-methoxy-2-pyrazinyl)-5-(6-(1-methylethoxy)-2-pyrazinyl)-1H-indole]	216	126	2270
CC(C)Oc1cncc(-c2ccc3[nH]cc(-c4cccc(OC(C)C)n4)c3c2)n1 [Example 226, 5-(6-(1-methylethoxy)-2-pyrazinyl)-3-(6-(1-methylethoxy)-2-pyridinyl)-1H-indole]	2200	616	> 3000
CC(C)Oc1cncc(-c2ccc3[nH]cc(-c4cccc(N5CCCC5=O)n4)c3c2)n1 [Example 229, 1-(6-(5-(6-(1-methylethoxy)-2-pyrazinyl)-1H-indol-3-yl)-2-pyridinyl)-2-pyrrolidinone]	251	147	> 3000
Nc1ccc2[nH]cc(-c3cncc(N4CCC(N)CC4)n3)c2c1 [Example 233, 3-(6-(4-aminopiperidin-1-yl)pyrazin-2-yl)-1H-indol-5-amine]	845	1760	> 3000
CCC(=O)Nc1ccc2[nH]cc(-c3cncc(N4CCC(N)CC4)n3)c2c1 [Example 234, N-(3-(6-(4-aminopiperidin-1-yl)pyrazin-2-yl)-1H-indol-5-yl)propionamide]	161	348	2570
NC1CCN(c2cncc(-c3c[nH]c4ccc(NC(=O)c5ccccc5)cc34)n2)CC1 [Example 235, N-(3-(6-(4-aminopiperidin-1-yl)pyrazin-2-yl)-1H-indol-5-yl)benzamide]	121	151	1870
NC1CCN(c2cncc(-c3c[nH]c4ccc(C(=O)O)cc34)n2)CC1 [Example 237, 3-(6-(4-aminopiperidin-1-yl)pyrazin-2-yl)-1H-indole-5-carboxylic acid]	195	122	325
NC(=O)c1ccc2[nH]cc(-c3cncc(N4CCC(N)CC4)n3)c2c1 [Example 238, 3-(6-(4-aminopiperidin-1-yl)pyrazin-2-yl)-1H-indole-5-carboxamide]	107	311	755
CC(C)NC(=O)c1ccc2[nH]cc(-c3cncc(N4CCC(N)CC4)n3)c2c1 [Example 239, 3-(6-(4-aminopiperidin-1-yl)pyrazin-2-yl)-N-isopropyl-1H-indole-5-carboxamide]	166	347	> 3000
